Results published in ChEMBL document CHEMBL1201862, “PubChem BioAssay data set” (2004).
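Assay format: 96-well plates, 48-hour exposure. The concentration for 50% growth inhibition is given as GI50.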 The source made the active and inactive calls. Rule as the data show it: active = GI50 up to about 1.1 µM and inactive = higher.

Key:
Experiment in all cases: NCI anticancer screen, dose series, 48 h
UO-31 = test system: UO-31
MDA-MB-231 = test system: MDA-MB-231
SF-539 = test system: SF-539
SK-MEL-28 = test system: SK-MEL-28
NCI-H226 = test system: NCI-H226
SW-620 = test system: SW-620
RXF 393 = test system: RXF 393
A549 = test system: A549
HCT-116 = test system: HCT-116
OVCAR-8 = test system: OVCAR-8
LOX IMVI = test system: LOX IMVI
OVCAR-4 = test system: OVCAR-4
OVCAR-3 = test system: OVCAR-3
MOLT-4 = test system: MOLT-4
HT-29 = test system: HT-29
IGROV-1 = test system: IGROV-1
A498 = test system: A498
HOP-92 = test system: HOP-92
EKVX = test system: EKVX
M14 = test system: M14
SK-MEL-5 = test system: SK-MEL-5
CAKI-1 = test system: CAKI-1
CCRF-CEM = test system: CCRF-CEM
SK-OV-3 = test system: SK-OV-3
UACC-62 = test system: UACC-62
BT-549 = test system: BT-549
RPMI-8226 = test system: RPMI-8226
Malme-3M = test system: Malme-3M
HL-60 = test system: HL-60
K562 = test system: K562
SK-MEL-2 = test system: SK-MEL-2
T47D = test system: T47D
NCI-H522 = test system: NCI-H522
MDA-N = test system: MDA-N
HCT-15 = test system: HCT-15
OVCAR-5 = test system: OVCAR-5
HOP-62 = test system: HOP-62
SN12C = test system: SN12C
SF-268 = test system: SF-268
UACC-257 = test system: UACC-257
Hs-578T = test system: Hs-578T
KM12 = test system: KM12
786-0 = test system: 786-0
NCI-H23 = test system: NCI-H23
SNB-19 = test system: SNB-19
SNB-75 = test system: SNB-75
NCI-H460 = test system: NCI-H460
DU-145 = test system: DU-145
MDA-MB-435 = test system: MDA-MB-435
U-251 = test system: U-251
ACHN = test system: ACHN
SF-295 = test system: SF-295
PC-3 = test system: PC-3
TK-10 = test system: TK-10
MCF7 = test system: MCF7
NCI/ADR-RES = test system: NCI/ADR-RES
COLO 205 = test system: COLO 205
HCC 2998 = test system: HCC 2998

Q: What does the source list for `Cc1ccc(I)cc1N=C=S`?
A: GI50 (UO-31): 17.3 µM (inactive); GI50 (MDA-MB-231): 28.2 µM (inactive); GI50 (SF-539): 18.8 µM (inactive); GI50 (SK-MEL-28): 20.2 µM (inactive); GI50 (NCI-H226): 18.3 µM (inactive); GI50 (SW-620): 32.7 µM (inactive); GI50 (RXF 393): 20.2 µM (inactive); GI50 (A549): 28.6 µM (inactive); GI50 (HCT-116): 29.8 µM (inactive); GI50 (OVCAR-8): 38.4 µM (inactive); GI50 (LOX IMVI): 22.2 µM (inactive); GI50 (OVCAR-4): 26.9 µM (inactive); GI50 (OVCAR-3): 31 µM (inactive); GI50 (MOLT-4): 20.2 µM (inactive); GI50 (HT-29): 23.5 µM (inactive); GI50 (IGROV-1): 28.8 µM (inactive); GI50 (A498): 21.2 µM (inactive); GI50 (HOP-92): 43.4 µM (inactive); GI50 (EKVX): 23.7 µM (inactive); GI50 (M14): 20.2 µM (inactive); GI50 (SK-MEL-5): 16.5 µM (inactive); GI50 (CAKI-1): 24.9 µM (inactive); GI50 (CCRF-CEM): 21.8 µM (inactive); GI50 (SK-OV-3): 37.3 µM (inactive); GI50 (UACC-62): 17.3 µM (inactive); GI50 (BT-549): 13.3 µM (inactive); GI50 (RPMI-8226): 20.8 µM (inactive); GI50 (Malme-3M): 25.1 µM (inactive); GI50 (HL-60): 21.6 µM (inactive); GI50 (K562): 23 µM (inactive); GI50 (SK-MEL-2): 17.8 µM (inactive); GI50 (T47D): 16.1 µM (inactive); GI50 (NCI-H522): 17.2 µM (inactive); GI50 (MDA-N): 27.9 µM (inactive); GI50 (HCT-15): 17.8 µM; GI50 (OVCAR-5): 23.4 µM (inactive); GI50 (HOP-62): 26.1 µM (inactive); GI50 (SN12C): 20.7 µM (inactive); GI50 (SF-268): 27.6 µM (inactive); GI50 (UACC-257): 25 µM (inactive); GI50 (Hs-578T): 29.9 µM (inactive); GI50 (KM12): 17.3 µM (inactive); GI50 (786-0): 23.6 µM (inactive); GI50 (NCI-H23): 19.9 µM (inactive); GI50 (SNB-19): 23.5 µM (inactive); GI50 (SNB-75): 21.2 µM (inactive); GI50 (NCI-H460): 23.5 µM (inactive); GI50 (DU-145): 28.3 µM (inactive); GI50 (MDA-MB-435): 23.1 µM (inactive); GI50 (U-251): 19.5 µM (inactive); GI50 (ACHN): 22.8 µM (inactive); GI50 (SF-295): 26.9 µM (inactive); GI50 (PC-3): 20.3 µM (inactive); GI50 (TK-10): 36 µM (inactive); GI50 (MCF7): 21.2 µM (inactive); GI50 (NCI/ADR-RES): 25.9 µM (inactive); GI50 (COLO 205): 18.2 µM (inactive)

Q: For `COC(=O)C1=C(OC)C(=P2(c3ccccc3)CC(c3ccccc3)=C2c2ccccc2)C(C(=O)OC)=C1C(=O)OC` (configuration not stated), which GI50 (UO-31) is on record?
A: 14.9 µM (inactive)

Q: And the GI50 (MDA-MB-231)?
A: > 72.8 µM (inactive)

Q: And the GI50 (SF-539)?
A: 23.6 µM (inactive)

Q: And the GI50 (SK-MEL-28)?
A: > 68.5 µM (inactive)

Q: What about the GI50 (NCI-H226) of the same molecule?
A: 68.9 µM (inactive)

Q: What about the GI50 (SW-620) of the same molecule?
A: 14.6 µM (inactive)

Q: And the GI50 (RXF 393)?
A: 18.1 µM (inactive)

Q: What about the GI50 (A549) of the same molecule?
A: 26.4 µM (inactive)

Q: And the GI50 (HCT-116)?
A: 22.8 µM (inactive)

Q: And the GI50 (OVCAR-8)?
A: > 95.7 µM (inactive)

Q: What about the GI50 (LOX IMVI) of the same molecule?
A: 25.1 µM (inactive)

Q: What about the GI50 (OVCAR-4) of the same molecule?
A: 19.5 µM (inactive)

Q: And the GI50 (OVCAR-3)?
A: 35 µM (inactive)

Q: And the GI50 (MOLT-4)?
A: 3.17 µM (inactive)

Q: And the GI50 (IGROV-1)?
A: 22.2 µM (inactive)

Q: What about the GI50 (EKVX) of the same molecule?
A: > 91.8 µM (inactive)

Q: What about the GI50 (M14) of the same molecule?
A: 43.5 µM (inactive)

Q: And the GI50 (SK-MEL-5)?
A: 15.7 µM (inactive)

Q: And the GI50 (CAKI-1)?
A: 50.4 µM (inactive)

Q: What about the GI50 (CCRF-CEM) of the same molecule?
A: 0.745 µM (active)

Q: What about the GI50 (SK-OV-3) of the same molecule?
A: > 61.5 µM (inactive)

Q: What about the GI50 (UACC-62) of the same molecule?
A: 61.2 µM (inactive)

Q: What about the GI50 (HCC 2998) of the same molecule?
A: > 100 µM (inactive)

Q: And the GI50 (BT-549)?
A: > 76.6 µM (inactive)

Q: What about the GI50 (RPMI-8226) of the same molecule?
A: 9.42 µM (inactive)

Q: What about the GI50 (Malme-3M) of the same molecule?
A: 29.9 µM (inactive)

Q: And the GI50 (HL-60)?
A: 0.968 µM (active)

Q: And the GI50 (K562)?
A: 4.58 µM (inactive)

Q: And the GI50 (SK-MEL-2)?
A: 54.5 µM (inactive)

Q: And the GI50 (T47D)?
A: 15.5 µM (inactive)

Q: What about the GI50 (NCI-H522) of the same molecule?
A: 2.65 µM (inactive)

Q: And the GI50 (MDA-N)?
A: 38 µM (inactive)

Q: What about the GI50 (HCT-15) of the same molecule?
A: 11 µM

Q: What about the GI50 (OVCAR-5) of the same molecule?
A: > 100 µM (inactive)

Q: What about the GI50 (HOP-62) of the same molecule?
A: > 100 µM (inactive)

Q: And the GI50 (SN12C)?
A: 31.8 µM (inactive)

Q: What about the GI50 (SF-268) of the same molecule?
A: > 61.1 µM (inactive)

Q: And the GI50 (UACC-257)?
A: > 71.1 µM (inactive)

Q: And the GI50 (Hs-578T)?
A: > 100 µM (inactive)

Q: And the GI50 (KM12)?
A: 27.5 µM (inactive)

Q: What about the GI50 (786-0) of the same molecule?
A: 27.4 µM (inactive)

Q: And the GI50 (NCI-H23)?
A: 33.8 µM (inactive)

Q: What about the GI50 (SNB-19) of the same molecule?
A: 67.1 µM (inactive)

Q: What about the GI50 (SNB-75) of the same molecule?
A: 41.6 µM (inactive)

Q: What about the GI50 (NCI-H460) of the same molecule?
A: 15 µM (inactive)

Q: What about the GI50 (DU-145) of the same molecule?
A: > 61.2 µM (inactive)

Q: And the GI50 (MDA-MB-435)?
A: 40.7 µM (inactive)

Q: And the GI50 (U-251)?
A: 19.9 µM (inactive)

Q: What about the GI50 (ACHN) of the same molecule?
A: 49.8 µM (inactive)

Q: And the GI50 (SF-295)?
A: > 76.6 µM (inactive)

Q: And the GI50 (PC-3)?
A: 10.8 µM (inactive)

Q: And the GI50 (TK-10)?
A: > 20.2 µM (inactive)

Q: What about the GI50 (MCF7) of the same molecule?
A: 7.55 µM (inactive)

Q: What about the GI50 (NCI/ADR-RES) of the same molecule?
A: > 82.4 µM (inactive)

Q: And the GI50 (COLO 205)?
A: 18.8 µM (inactive)
